Source: BindingDB's records for doi:10.1021/jm200390u (Chosun University, 2011)

Molecular target: T1, 15-hydroxyprostaglandin dehydrogenase [NAD(+)] (Homo sapiens, UniProt P15428)
T1 sequence (P15428 whole entry): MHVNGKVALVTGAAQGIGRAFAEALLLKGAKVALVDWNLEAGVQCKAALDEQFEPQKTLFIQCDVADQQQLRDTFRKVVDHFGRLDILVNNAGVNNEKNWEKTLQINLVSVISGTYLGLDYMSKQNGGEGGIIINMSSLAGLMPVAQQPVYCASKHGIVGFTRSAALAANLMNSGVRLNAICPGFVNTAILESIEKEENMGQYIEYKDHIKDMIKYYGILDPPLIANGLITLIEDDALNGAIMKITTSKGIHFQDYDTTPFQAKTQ
Assay: Inhibition of human 15-PGDH expressed in Escherichia coli using PGE2 as substrate and NAD+ as coenzyme assessed as formation of NADH by spectrophotometric analysis

IC50: 51 nM
SMILES: O=C1N=C(O)SC1=Cc1ccc(OCCC2CCCCC2)cc1
